Data on one molecule can be found in ChEMBL document CHEMBL4813932, “Terpenoid Constituents of Perovskia artemisioides Aerial Parts with Inhibitory Effects on Bacterial Biofilm Growth” (2021).

Common to all, as to test: microbe, parasite or virus in culture
What all share (format): functional

Test [1] concerns Listeria monocytogenes. Particulars: ATCC 7644, time 48 hrs.
For test [2], the system named is Acinetobacter baumannii. To be noted: ATCC 19606 = CIP 70.34 = JCM 6841, time 48 hrs.
Test [3] relates to Pseudomonas aeruginosa. Particulars: ATCC 50071, time 48 hrs.
Test [4] deals with Escherichia coli. To be noted: DSM 8579, time 48 hrs.
In test [5] the test system is Escherichia coli. To be noted: DSM 8579, time 48 hrs. This is another data set of the same source.
Test [6] relates to Acinetobacter baumannii. Particulars: ATCC 19606 = CIP 70.34 = JCM 6841, time 48 hrs. This is another data set of the same source.
The test system of test [7] is Pseudomonas aeruginosa. Particulars: ATCC 50071, time 48 hrs. The source holds these as a separate data set.
Test [8] concerns Escherichia coli. Particulars: DSM 8579, time 48 hrs. This is another data set of the same source.
In test [9] the test system is Pectobacterium carotovorum. To be noted: ATCC 15713, time 48 hrs.
Test [10] deals with Staphylococcus aureus. To be noted: ATCC 25923, time 48 hrs.
For test [11], the system named is Acinetobacter baumannii. Particulars: ATCC 19606 = CIP 70.34 = JCM 6841, time 48 hrs. The source holds these as a separate data set.
The subject of test [12] is Listeria monocytogenes. To be noted: ATCC 7644, time 48 hrs. This is another data set of the same source.
The test system of test [13] is Acinetobacter baumannii. Particulars: ATCC 19606 = CIP 70.34 = JCM 6841, time 48 hrs. The source holds these as a separate data set.
The subject of test [14] is Staphylococcus aureus. To be noted: ATCC 25923, time 48 hrs. The source holds these as a separate data set.
For test [15], the system named is Pseudomonas aeruginosa. Particulars: ATCC 50071, time 48 hrs. This is another data set of the same source.
The test system of test [16] is Listeria monocytogenes. To be noted: ATCC 7644, time 48 hrs. This is another data set of the same source.
The test system of test [17] is Pseudomonas aeruginosa. Particulars: ATCC 50071, time 48 hrs. This is another data set of the same source.
Test [18] deals with Escherichia coli. Particulars: DSM 8579, time 48 hrs. The source holds these as a separate data set.
The subject of test [19] is Staphylococcus aureus. Particulars: ATCC 25923, time 48 hrs. This is another data set of the same source.
In test [20] the test system is Pectobacterium carotovorum. Particulars: ATCC 15713, time 48 hrs. This is another data set of the same source.
The subject of test [21] is Pectobacterium carotovorum. To be noted: ATCC 15713, time 48 hrs. This is another data set of the same source.
For test [22], the system named is Pectobacterium carotovorum. Particulars: ATCC 15713, time 48 hrs. The source holds these as a separate data set.
Test [23] deals with Listeria monocytogenes. To be noted: ATCC 7644, time 48 hrs. This is another data set of the same source.
Test [24] concerns Staphylococcus aureus. To be noted: ATCC 25923, time 48 hrs. The source holds these as a separate data set.

In the case of `CC(C)c1cc2c(c(O)c1O)[C@@]13CCCC(C)(C)[C@@H]1C[C@@H]2OC3=O` [CARNOSOL], the inhibition at 8 µg/mL in the test on Listeria monocytogenes [1] is 40.4%; in the test with Acinetobacter baumannii [11] it was 49%; with Acinetobacter baumannii [13], 47.2%; with Staphylococcus aureus [14] it was 100%; in the test on Pseudomonas aeruginosa [15], 88.5%; in the test on Listeria monocytogenes [16] it was 46.7%. In addition, the inhibition at 8 µg/mL with Pseudomonas aeruginosa [17] worked out at 5.4%; in the test on Staphylococcus aureus [19], 84.8%; in [20], 69.1%; in test [21], 100%. The inhibition at 4 µg/mL turned out to be 7.1% in the test with Acinetobacter baumannii [2]; 0% in the test with Pseudomonas aeruginosa [3]; 43.2% in the test on Acinetobacter baumannii [6]; 39% in the test on Pseudomonas aeruginosa [7]; 49.1% in test [9]; 95.9% with Staphylococcus aureus [10]. Moreover, the inhibition at 4 µg/mL in the test with Listeria monocytogenes [12] turned out to be 17.2%; in [22], 35.8%; in the test with Listeria monocytogenes [23], 27.6%; in the test on Staphylococcus aureus [24] it was 68.2%. The inhibition at 80 µg/mL in the test with Escherichia coli [4] and in the test on Escherichia coli [18] was 0% each time. Moreover, the inhibition at 40 µg/mL in the test on Escherichia coli [5] and with Escherichia coli [8] was 0% throughout.
